Read-outs that look alike come from different tables or passages of the source.

Details of data set [1]: species or system mice. The following applies: mouse, in vivo. The protocol: Mice were injected intramuscularly with 200 mg/kg of an atovaquone nanoformulation. At intervals blood was harvested (microtainer tubes, BD Biosciences), centrifuged (1300×g, 10 min, 4° C.), and plasma was collected and stored at −80° C. until use. The nanoformulations tested were ACS_ATQ_7 and ACS_ATQ_8.
The concentration of atovaquone in the plasma was assayed by UPLC-MS/MS. Briefly, acetonitrile and deuterated atovaquone internal standard were added to 25 μL of thawed plasma, followed by filtration (Captiva filtration plate, Agilent Technologies). A 5 μL aliquot was separated on a reverse phase column and atovaquone was monitored by triple-quadrupole API4000 (SCIEX, Framingham, Mass., USA) mass analyzer with electrospray ionization. The assay was validated to FDA guidelines for 250-50,000 ng/mL. Values between 250 and 77 ng/mL (the limit of detection) were interpreted conservatively.

Data set [2] in a line: Atovaquone release by Rapid Equilibrium Dialysis (RED) in Simulated Interstitial Fluid. The following applies: initial 6-hour period, SIF, 1 mg/mL atovaquone, 37° C. Type of data set: physicochemical. The protocol: The release rate of atovaquone from solid compositions thereof in accordance with the invention, alongside an equivalent unformulated preparation of atovaquone, was assessed using Rapid Equilibrium Dialysis (RED) (ThermoFisher Scientific). The eleven ‘hit’ formulations were dispersed in Simulated Interstitial Fluid (SIF) and subsequently diluted to 1 mg/mL of atovaquone. The SIF consisted of 35 mg/mL bovine serum albumin (BSA) and 2 mg/mL γ-Globulin derived from bovine blood and dissolved in distilled water. Unformulated atovaquone was initially dissolved in DMSO prior to dilution with SIF, such that the DMSO volume was <1% of the total volume. […] Following incubation, 4 mL ultima gold liquid scintillation cocktail fluid (Meridian Biotechnologies, UK) was added to each 0.1 mL sample and radioactivity was determined as disintegrations per minute (DPM) using a Perkin Elmer 3100TS scintillation counter. Data is expressed as the amount of atovaquone released and diffused across the membrane as a percentage of the starting donor amount, in triplicate, for each of the eleven hit formulations as compared to unformulated atovaquone, as shown in FIGS. 3A-3K (error bars are ±1 S.D.) and FIG. 4 (release after 24 hours) (error bars are ±1 S.D.). […]

The conditions of data set [3]: humans; known value; cited from earlier work.
For data set [4] the following is noted: orally dosed; mice; known value; cited from earlier work.
For data set [5] the following is noted: in vivo.
For data set [6] the following is noted: background statement; cited from earlier work.

Consider `O=C1C(O)=C([C@H]2CC[C@H](c3ccc(Cl)cc3)CC2)C(=O)c2ccccc21` [atovaquone], for which the “plasma concentration of atovaquone that correlates with successful prophylaxis” value in data set [1] is given as > 200 ng/mL. The “Release Rate” value in data set [2] (Table 3) was 0.006 h⁻¹; in data set [2] (different loadings, Table 7) it was 0.0060 h⁻¹. Moreover, the plasma half-life is 70 h in data set [3] and 9 h in data set [4]. Further, in data set [5], the “disposition of atovaquone in humans relative to mice” value was “approximately eight”. Besides, the lipophilicity result in data set [6] was “highly lipophilic”. Moreover, the solubility in water entry in data set [6] is “practically insoluble”.

(Values after patent publication US20230218547A1, “CHEMICAL COMPOSITION” (The University of Liverpool, priority 2016, published 2023).)
